This is an account of results in paper PMC7144195, “Synthesis, antitumor activity, and molecular docking study of 2-cyclopentyloxyanisole derivatives: mechanistic study of enzyme inhibition” (Journal of Enzyme Inhibition and Medicinal Chemistry, 2020).

One data set concerns HePG2 cell line. Description: In vitro antitumor MTT assay, HePG2. The class given is cell-based. The protocol: (§1) The antitumor activity was performed by using the tetrazolium salt 3-(4,5-dimethyl-2-thiazolyl)-2,5-diphenyl-2H-tetrazolium bromide (MTT) assay in accordance with an established method.
(§2) Compounds 3a–c, 4a,b, 5a,b, 6a,b, 7a–e, 8, 9a–c, 10, 11, 12a–c, 13, and 14 were screened for their in vitro antitumor activity by using the standard 3-(4,5-dimethylthiazol-2-yl)-2,5-diphenyltetrazolium bromide (MTT) assay against five human cancers: HePG2, HCT-116, MCF-7, PC3, and HeLa cell lines. […].
In general terms: Tetrazolium dyes change colour on reduction, which living cells bring about.

Another data set has as its system HCT-116 cell line. Description: In vitro antitumor MTT assay, HCT-116. It counts as cell-based.
For a further data set, the system named is MCF-7 cell line. The data set is described as follows: In vitro antitumor MTT assay, MCF-7. It counts as cell-based.
Another data set has as its system PC3 cell line. Description: In vitro antitumor MTT assay, PC3. The class given is cell-based.
The test system of a further data set is HeLa cell line. Description: In vitro antitumor MTT assay, HeLa. The class given is cell-based. As to the method:
as §1, §2

Another data set has as its system TNF-α. Description: TNF-α inhibition assay (human-specific sandwich ELISA). It counts as biochemical. The following applies: read-out: IC50 (µM) TNFα inhibition. As to the method: The concentration of TNF-α was measured by human-specific sandwich enzyme-linked immunosorbent assay (ELISA) in accordance with the manufacturer’s instructions (no. 589201, Cayman Chemical, Ann Arbour, MI)[43]^,[44].
TNF-α has been reported as a target for cancer treatment; presently, TNF antagonists are under clinical investigation in phase I and II trials as single agents for cancer therapy. […].
(An ELISA detects its analyte on a solid surface through an enzyme-linked reagent.)

Data set [1] relates to HePG2, HCT-116, MCF-7, PC3, and HeLa cell lines. Description: In vitro antitumor MTT assay, panel of five human cancer cell lines (text summaries). The class given is cell-based. The following applies: read-out: IC50, antitumor activity, range over the tested cancer cell lines. The protocol:
as §1, §2

A further data set deals with T1, COX-2 (Ovis aries, UniProt P79208).
T1 construct: purchased Cayman Chemical 560101
T1 sequence (P79208 17-603): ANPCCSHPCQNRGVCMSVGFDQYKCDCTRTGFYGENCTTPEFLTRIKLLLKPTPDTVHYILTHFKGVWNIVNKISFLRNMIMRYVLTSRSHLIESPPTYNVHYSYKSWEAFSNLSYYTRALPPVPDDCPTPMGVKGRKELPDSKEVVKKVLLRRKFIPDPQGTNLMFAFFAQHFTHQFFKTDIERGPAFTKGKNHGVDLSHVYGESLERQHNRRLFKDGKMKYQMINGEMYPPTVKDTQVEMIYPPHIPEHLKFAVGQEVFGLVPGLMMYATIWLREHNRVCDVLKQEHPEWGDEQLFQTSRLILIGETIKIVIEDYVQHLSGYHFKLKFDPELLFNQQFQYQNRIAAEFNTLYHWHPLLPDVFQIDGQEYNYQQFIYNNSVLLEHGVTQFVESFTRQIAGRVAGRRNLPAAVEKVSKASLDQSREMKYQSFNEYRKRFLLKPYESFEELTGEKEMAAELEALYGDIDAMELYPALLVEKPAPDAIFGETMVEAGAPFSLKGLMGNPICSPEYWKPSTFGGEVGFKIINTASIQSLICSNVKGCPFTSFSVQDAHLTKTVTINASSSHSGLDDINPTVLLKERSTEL
The data set is described as follows: Colorimetric COX-2 inhibition assay (Cayman kit 560101). It counts as biochemical. The following applies: means of three determinations.

A further data set deals with PDE4B (Homo sapiens, UniProt Q07343). Description: PDE4B inhibition assay. The class given is biochemical. The following applies: read-out: IC50 (µM) PDE-4B inhibition.
[2] abbreviates: Homo sapiens, HepG2; read-out: IC50 (µM) HePG2.
Setting [3] is: Homo sapiens, HCT-116; read-out: IC50 (µM) HCT-116.
Setting [4] is: Homo sapiens, MCF7; read-out: IC50 (µM) MCF-7.
Where [5] appears, read: Homo sapiens, PC-3; read-out: IC50 (µM) PC3.
Setting [6] is: Homo sapiens; read-out: IC50 (µM) HeLa.
Where [7] appears, read: Homo sapiens, range over (all or some of) HePG2, HCT-116, MCF-7, PC3, HeLa.
[8] abbreviates: range over (all or some of) HePG2, HCT-116, MCF-7, PC3, HeLa.

The structures appear in SMILES notation. Where two headings read alike, the source gives them in different places.

Sequence of PDE4B (Q07343 whole entry): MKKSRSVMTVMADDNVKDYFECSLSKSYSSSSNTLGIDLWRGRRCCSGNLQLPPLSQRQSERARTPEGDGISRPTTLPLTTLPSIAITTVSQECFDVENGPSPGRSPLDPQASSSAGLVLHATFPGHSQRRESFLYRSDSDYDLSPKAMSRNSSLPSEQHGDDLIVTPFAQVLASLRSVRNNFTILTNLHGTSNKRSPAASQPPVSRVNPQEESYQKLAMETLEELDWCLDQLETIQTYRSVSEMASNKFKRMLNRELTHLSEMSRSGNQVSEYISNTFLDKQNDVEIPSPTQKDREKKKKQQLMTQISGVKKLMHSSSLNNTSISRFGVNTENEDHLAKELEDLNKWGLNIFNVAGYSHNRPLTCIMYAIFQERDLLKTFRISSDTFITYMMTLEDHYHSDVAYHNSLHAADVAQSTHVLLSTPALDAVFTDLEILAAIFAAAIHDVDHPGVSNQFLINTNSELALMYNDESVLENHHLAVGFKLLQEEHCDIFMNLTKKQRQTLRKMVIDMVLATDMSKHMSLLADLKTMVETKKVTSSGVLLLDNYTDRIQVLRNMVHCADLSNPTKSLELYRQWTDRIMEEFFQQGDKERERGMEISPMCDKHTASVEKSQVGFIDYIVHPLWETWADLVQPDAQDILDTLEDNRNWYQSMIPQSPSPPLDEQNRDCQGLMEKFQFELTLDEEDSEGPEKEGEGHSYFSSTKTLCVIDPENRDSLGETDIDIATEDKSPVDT
Experimental for HCT-116 cell line: (§3) The antitumor activity was performed by using the tetrazolium salt 3-(4,5-dimethyl-2-thiazolyl)-2,5-diphenyl-2H-tetrazolium bromide (MTT) assay in accordance with an established method[39].
Experimental for MCF-7 cell line: as §3
Experimental for PC3 cell line: as §3

One may read the IC50 as the concentration at which inhibition is half-maximal. As to `Cc1ccc(-c2cc(C(F)(F)F)nn2-c2ccc(S(N)(=O)=O)cc2)cc1` [Celecoxib, celecoxib, reference compound], the IC50 in the data set with HePG2 cell line (Homo sapiens, HepG2, read-out: IC50 (µM) HePG2) worked out at 25.6 ± 2.3 µM; in the data set on HCT-116 cell line (Homo sapiens, HCT-116, read-out: IC50 (µM) HCT-116), 29.5 ± 2.1 µM; with MCF-7 cell line (Homo sapiens, MCF7, read-out: IC50 (µM) MCF-7) it was 31.3 ± 2.5 µM; in the data set with PC3 cell line (Homo sapiens, PC-3, read-out: IC50 (µM) PC3), 30.7 ± 2.7 µM; in the data set with HeLa cell line (Homo sapiens, read-out: IC50 (µM) HeLa), 36.1 ± 2.8 µM; in the data set on TNF-α, 6.44 µM. Also, the IC50 in data set [1] (Homo sapiens) lay within 25.6 to 36.1 µM.

One may read the melting point as the temperature of the solid-liquid transition. In turn, `COc1ccc(C=C2CN(C)CCC2=O)cc1OC1CCCC1` [Compound 4a, 3-(3-(Cyclopentyloxy)-4-methoxybenzylidene)-1-methylpiperidin-4-one] displayed a melting point of 253 to 255 °C. The IC50 with HePG2 cell line (setting [2]) was 6.04 ± 0.5 µM. The IC50 with HCT-116 cell line (setting [3]) came to 4.38 ± 0.4 µM. In the data set on MCF-7 cell line (setting [4]), the IC50 came to 5.13 ± 0.3 µM. The IC50 with PC3 cell line (setting [5]) is 9.18 ± 0.8 µM. Also, the IC50 with HeLa cell line (setting [6]) turned out to be 7.24 ± 0.7 µM. The IC50 on COX-2 came to 3.34 µM. Besides, on PDE4B, the IC50 stood at 5.62 µM. The IC50 with TNF-α is 2.01 µM. For the same compound, the half-maximal inhibitory concentration (IC50) in data set [1] (setting [7]) fell in the range of 4.38 to 22.9 µM. Moreover, the IC50 in data set [1] (setting [8]) lay within 4.38 to 9.18 µM.

Turning to `CCN1CCC(=O)C(=Cc2ccc(OC)c(OC3CCCC3)c2)C1` [Compound 4b, 3-(3-(Cyclopentyloxy)-4-methoxybenzylidene)-1-ethylpiperidin-4-one], the melting point lay within 249 to 251 °C. In addition, in the data set with HePG2 cell line (setting [2]), the 50% inhibitory concentration (IC50) amounted to 11 ± 1.1 µM. For the same compound, in the data set on HCT-116 cell line (setting [3]), the IC50 came to 9.48 ± 0.8 µM. Further, the IC50 in the data set on MCF-7 cell line (setting [4]) turned out to be 7.18 ± 0.8 µM. Besides, in the data set on PC3 cell line (setting [5]), the IC50 stood at 14.3 ± 1.2 µM. Also, the IC50 in the data set on HeLa cell line (setting [6]) stood at 8.56 ± 0.9 µM. At COX-2, this compound showed an IC50 of 1.08 µM. The IC50 at PDE4B is 11.6 µM. Also, the IC50 in the data set with TNF-α was 17.7 µM. Besides, the IC50 in data set [1] (setting [7]) was 4.38 to 22.9 µM. Besides, the half-maximal inhibitory concentration (IC50) in data set [1] (setting [8]) fell in the range of 7.18 to 14.3 µM.

For the compound `COc1ccc(-c2nc3c4ccccc4c4ccccc4c3n2-c2ccccc2)cc1OC1CCCC1` [Compound 7b, 2-(3-(Cyclopentyloxy)-4-methoxyphenyl)-1-phenyl-1H-phenanthro[9,10-d]imidazole], the melting point lay in the range of 295 to 297 °C. Also, the IC50 with HePG2 cell line (setting [2]) amounted to 13.7 ± 1.2 µM. Further, the IC50 in the data set with HCT-116 cell line (setting [3]) turned out to be 19.7 ± 1.4 µM. In addition, the IC50 in the data set on MCF-7 cell line (setting [4]) was determined as 11.8 ± 1.3 µM. Also, in the data set on PC3 cell line (setting [5]), the IC50 turned out to be 22.9 ± 1.9 µM. Further, in the data set with HeLa cell line (setting [6]), the IC50 worked out at 17.2 ± 1.5 µM. Moreover, on COX-2, the IC50 is 24 µM. Also, the IC50 on PDE4B is 5.65 µM. Moreover, the IC50 in the data set on TNF-α was determined as 13.9 µM. In [1] (setting [8]), the IC50 lay within 11.8 to 22.9 µM.

The compound `COc1ccc(C(=S)N2CCN(C(=O)OC(C)(C)C)CC2)cc1OC1CCCC1` [Compound 9c, tert-Butyl 4-(3-(cyclopentyloxy)-4-methoxyphenylcarbonothioyl)piperazine-1-carboxylate] registered a melting point of 191 to 193 °C. Moreover, in the data set with HePG2 cell line (setting [2]), the IC50 worked out at 36.3 ± 2.5 µM. Moreover, the IC50 in the data set with HCT-116 cell line (setting [3]) stood at 52.9 ± 2.7 µM. In addition, the IC50 with MCF-7 cell line (setting [4]) was found to be 48.9 ± 2.3 µM. The IC50 in the data set with PC3 cell line (setting [5]) is 33.4 ± 2.6 µM. In addition, in the data set with HeLa cell line (setting [6]), the IC50 turned out to be 40.6 ± 2.8 µM. For the same compound, the IC50 in data set [1] (setting [7]) was 33.4 to 52.9 µM.

As to `COc1ccc(C(=S)Nc2ccc(F)cc2)cc1OC1CCCC1` [Compound 10, 3-(Cyclopentyloxy)-N-(4-fluorophenyl)-4-methoxybenzothioamide], the melting point lay within 194 to 196 °C. The IC50 in the data set on HePG2 cell line (setting [2]) amounted to 49.9 ± 3.5 µM. Moreover, the IC50 in the data set with HCT-116 cell line (setting [3]) is 79.1 ± 3.8 µM. Also, in the data set on MCF-7 cell line (setting [4]), the IC50 was 64.1 ± 3.1 µM. Further, in the data set on PC3 cell line (setting [5]), the IC50 turned out to be 47.3 ± 2.9 µM. In the data set with HeLa cell line (setting [6]), the IC50 stood at 52.5 ± 3.7 µM. The IC50 in data set [1] (setting [7]) fell in the range of 47.3 to 79.1 µM.

`COc1ccc(C(=S)N(C)C)cc1OC1CCCC1` [Compound 11, 3-(Cyclopentyloxy)-4-methoxy-N,N-dimethylbenzothioamide]: the melting point was 189 to 191 °C. For the same compound, the IC50 in the data set on HePG2 cell line (setting [2]) came to 91.2 ± 4.8 µM. For the same compound, in the data set with HCT-116 cell line (setting [3]), the half-inhibitory concentration (IC50) was determined as 96.8 ± 5.5 µM. Also, in the data set on MCF-7 cell line (setting [4]), the IC50 was determined as 94.3 ± 4.7 µM. The IC50 with PC3 cell line (setting [5]) was 88.6 ± 5 µM. In the data set on HeLa cell line (setting [6]), the IC50 amounted to 90.9 ± 4.9 µM. Moreover, in data set [1] (setting [7]), the IC50 fell in the range of 88.6 to 96.8 µM.

As for `COc1ccc(-c2[nH]c(=S)[nH]c(=O)c2C#N)cc1OC1CCCC1` [Compound 13, 6-(3-(cyclopentyloxy)-4-methoxyphenyl)-4-oxo-2-thioxo-1,2,3,4-tetrahydropyrimidine-5-carbonitrile], the IC50 in the data set on HePG2 cell line (setting [2]) was 8.71 ± 0.7 µM; in the data set on HCT-116 cell line (setting [3]), 7.66 ± 0.6 µM; in the data set on MCF-7 cell line (setting [4]), 6.93 ± 0.5 µM; in the data set on PC3 cell line (setting [5]), 11.5 ± 1.1 µM; with HeLa cell line (setting [6]), 5.86 ± 0.6 µM; on COX-2, 1.88 µM. Also, the IC50 on PDE4B is 3.98 µM; in the data set with TNF-α, 6.72 µM; in [1] (setting [7]) it was 5.86 to 20.1 µM.

Regarding `COc1ccc(-c2nc3n(c(=O)c2C#N)C(=O)CS3)cc1OC1CCCC1` [Compound 14, 7-(3-(Cyclopentyloxy)-4-methoxyphenyl)-3,5-dioxo-2,3-dihydro-5H-thiazolo[3,2-a]pyrimidine-6-carbonitrile], the melting point is 265 to 267 °C. In addition, the IC50 with HePG2 cell line (setting [2]) is 20.1 ± 1.8 µM. For the same compound, in the data set with HCT-116 cell line (setting [3]), the IC50 was determined as 34.9 ± 1.9 µM. For the same compound, in the data set on MCF-7 cell line (setting [4]), the concentration for half-maximal inhibition (IC50) was determined as 9.62 ± 0.9 µM. The IC50 in the data set with PC3 cell line (setting [5]) was 15.3 ± 1.3 µM. In addition, in the data set on HeLa cell line (setting [6]), the IC50 was found to be 12.5 ± 1.2 µM. Further, the IC50 in data set [1] (setting [7]) was in the range of 5.86 to 20.1 µM.
